Measurements taken from ChEMBL document CHEMBL1133780, “Synthesis and antiparasitic activity of 2-(trifluoromethyl)-benzimidazole derivatives” (Bioorg Med Chem Lett, 2001).
pIC50: −log10 of the molar value.

Columns and labels:
Entamoeba histolytica = test: In vitro antiprotozoal activity against Entamoeba histolytica; type: functional, organism-based
Trichinella spiralis [1] = test: Percent reduction of viability of Trichinella spiralis muscle larvae at a concentration of 3*10e-6 uM; No reduction observed; type: functional, organism-based
Trichinella spiralis [2] = test: Percent reduction of viability of Trichinella spiralis muscle larvae at a concentration of 3*10e-4 uM; type: functional
Trichinella spiralis [3] = test: Percent reduction of viability of Trichinella spiralis muscle larvae at a concentration of 3*10e-3 uM; type: functional
Trichinella spiralis [4] = test: Percent reduction of viability of Trichinella spiralis muscle larvae at a concentration of 3*10e-5 uM; type: functional
Rattus norvegicus [5] = species: Rattus norvegicus; test: Tested for inhibition of tubulin polymerization in rat brain at a concentration of 3*10e-3 uM; type: functional
Rattus norvegicus [6] = species: Rattus norvegicus; test: Tested for inhibition of tubulin polymerization in rat brain at a concentration of 3*10e-5 uM; type: functional
Rattus norvegicus [7] = species: Rattus norvegicus; test: Tested for inhibition of tubulin polymerization in rat brain at a concentration of 0.015 uM; type: functional
Rattus norvegicus [8] = species: Rattus norvegicus; test: Tested for inhibition of tubulin polymerization in rat brain at a concentration of 0.024 uM; type: functional
Giardia intestinalis = test: In vitro antiprotozoal activity against Giardia lamblia; type: functional, organism-based; conditions: Giardia duodenalis
Trichinella spiralis [9] = test: Percent reduction of viability of Trichinella spiralis muscle larvae at a concentration of 3*10e-4 uM; No reduction observed; type: functional, organism-based
Trichinella spiralis [10] = test: Percent reduction of viability of Trichinella spiralis muscle larvae at a concentration of 3*10e-5 uM; No reduction observed; type: functional, organism-based
Trichinella spiralis [11] = test: Percent reduction of viability of Trichinella spiralis muscle larvae at a concentration of 3*10e-3 uM; No reduction observed; type: functional, organism-based
Trichinella spiralis [12] = test: Percent reduction of viability of Trichinella spiralis muscle larvae at a concentration of 3*10e-6 uM; type: functional

## FC(F)(F)c1nc2cc(Cl)c(Cl)cc2[nH]1
Entamoeba histolytica
  pIC50: 7.96
Trichinella spiralis [1]
  Reduction: No reduction
Trichinella spiralis [2]
  Reduction: 9%
Trichinella spiralis [3]
  Reduction: 19%
Trichinella spiralis [4]
  Reduction: 1%
Rattus norvegicus [5]
  Viscosity: 7.03
Rattus norvegicus [6]
  Viscosity: 7
Rattus norvegicus [7]
  Viscosity: 6.68
Rattus norvegicus [8]
  Viscosity: 7.22
Giardia intestinalis
  pIC50: 7.11

## Cn1c(C(F)(F)F)nc2ccccc21
Entamoeba histolytica
  pIC50: 7.40
Trichinella spiralis [1]
  Reduction: No reduction
Trichinella spiralis [2]
  Reduction: 9%
Trichinella spiralis [3]
  Reduction: 12%
Trichinella spiralis [4]
  Reduction: 1%
Rattus norvegicus [5]
  Viscosity: 7.41
Rattus norvegicus [6]
  Viscosity: 6.68
Rattus norvegicus [7]
  Viscosity: 7.31
Rattus norvegicus [8]
  Viscosity: 7.16
Giardia intestinalis
  pIC50: 7.19

## Cn1c(C(F)(F)F)nc2ccc(Cl)cc21
Trichinella spiralis [9]
  Reduction: No reduction
Entamoeba histolytica
  pIC50: 8.10
Trichinella spiralis [1]
  Reduction: No reduction
Rattus norvegicus [5]
  Viscosity: 7.39
Rattus norvegicus [6]
  Viscosity: 6.44
Trichinella spiralis [10]
  Reduction: No reduction
Rattus norvegicus [7]
  Viscosity: 7.07
Rattus norvegicus [8]
  Viscosity: 7.26
Giardia intestinalis
  pIC50: 6.90
Trichinella spiralis [11]
  Reduction: No reduction

## CCCSc1ccc2[nH]c(NC(=O)OC)nc2c1 [ALBENDAZOLE]
Entamoeba histolytica
  pIC50: 4.25
Trichinella spiralis [2]
  Reduction: 20%
Trichinella spiralis [3]
  Reduction: 30%
Trichinella spiralis [4]
  Reduction: 13%
Rattus norvegicus [5]
  Viscosity: 2.07
Rattus norvegicus [6]
  Viscosity: 7.04
Giardia intestinalis
  pIC50: 7.43
Trichinella spiralis [12]
  Reduction: 6%

## FC(F)(F)c1nc2cc(Cl)ccc2[nH]1
Trichinella spiralis [9]
  Reduction: No reduction
Entamoeba histolytica
  pIC50: 7.66
Trichinella spiralis [1]
  Reduction: No reduction
Rattus norvegicus [5]
  Viscosity: 6.7
Rattus norvegicus [6]
  Viscosity: 6.59
Trichinella spiralis [10]
  Reduction: No reduction
Rattus norvegicus [7]
  Viscosity: 7.14
Rattus norvegicus [8]
  Viscosity: 6.47
Giardia intestinalis
  pIC50: 5.89
Trichinella spiralis [11]
  Reduction: No reduction

## FC(F)(F)c1nc2ccccc2[nH]1
Entamoeba histolytica
  pIC50: 7.16
Trichinella spiralis [1]
  Reduction: No reduction
Trichinella spiralis [2]
  Reduction: 3%
Trichinella spiralis [3]
  Reduction: 9%
Trichinella spiralis [4]
  Reduction: 1%
Rattus norvegicus [5]
  Viscosity: 7.56
Rattus norvegicus [6]
  Viscosity: 7.55
Rattus norvegicus [7]
  Viscosity: 7.34
Rattus norvegicus [8]
  Viscosity: 6.92
Giardia intestinalis
  pIC50: 6.97

## Cc1ncc([N+](=O)[O-])n1CCO [METRONIDAZOLE]
Entamoeba histolytica
  pIC50: 6.46
Giardia intestinalis
  pIC50: 5.91

## Cn1c(C(F)(F)F)nc2cc(Cl)ccc21
Entamoeba histolytica
  pIC50: 7.34
Trichinella spiralis [2]
  Reduction: 16%
Trichinella spiralis [3]
  Reduction: 39%
Trichinella spiralis [4]
  Reduction: 9%
Rattus norvegicus [5]
  Viscosity: 7.58
Rattus norvegicus [6]
  Viscosity: 7.3
Rattus norvegicus [7]
  Viscosity: 6.94
Rattus norvegicus [8]
  Viscosity: 7.54
Giardia intestinalis
  pIC50: 7.38
Trichinella spiralis [12]
  Reduction: 2%

## Cn1c(C(F)(F)F)nc2cc(Cl)c(Cl)cc21
Entamoeba histolytica
  pIC50: 7.48
Trichinella spiralis [2]
  Reduction: 9%
Trichinella spiralis [3]
  Reduction: 15%
Trichinella spiralis [4]
  Reduction: 4%
Rattus norvegicus [5]
  Viscosity: 7.63
Rattus norvegicus [6]
  Viscosity: 6.93
Rattus norvegicus [7]
  Viscosity: 6.63
Rattus norvegicus [8]
  Viscosity: 6.94
Giardia intestinalis
  pIC50: 6.59
Trichinella spiralis [12]
  Reduction: 2%
